The values below come from patent US20160235068A1, “CONTROLLED RELEASE PARTICLES, PRODUCTION METHOD THEREOF, MOLDING MATERIAL, AND MOLDED ARTICLE” (priority 2013, published 2016).

A short description of series [1]: Alkali-resistance test (Test A), suspending agent of controlled release particles. As to conditions: 168 h, 0.05 %. In kind it is physicochemical. How it is done:
1 mL of the diluted suspending agent was weighed in a glass bottle, and 4 mL of a saturated calcium hydroxide solution was added thereto, thereby preparing a test solution. The test solution was allowed to stand in a constant temperature of 40° C.
After 7 days from allowing the test solution to stand, 5 mL of acetonitrile was added to the test solution, the antibiotic compound was extracted, the amount of the antibiotic compound was determined with HPLC, and the remaining ratio of the antibiotic compound was calculated.

For series [2] the following is noted: cited from earlier work.

In brackets after ≈: the same amount, converted by molar mass.

`O=[N+]([O-])NC1=NCCN1Cc1ccc(Cl)nc1` [Imidacloprid, 1-(6-chloro-3-pyridylmethyl)-N-nitroimidazolidin-2-ylideneamine]: in series [1], the “Alkali-resistance (Test A) Remaining ratio (%) of antibiotic compound” value was 0%.
As to `CN/C(=N\[N+](=O)[O-])NCc1cnc(Cl)s1` [Clothianidin, (E)-1-(2-chlorothiazole-5-ylmethyl)-3-methyl-2-nitroguanidine], the solubility to water in series [2] is reported as 0.33 g/L (≈ 1320 µM).
